ChEMBL document CHEMBL1147629, “Beyond U0126. Dianion chemistry leading to the rapid synthesis of a series of potent MEK inhibitors” (Bioorg Med Chem Lett, 2004)

Key:
COS-7 [1] = experiment: Inhibitory concentration against AP-1 transcription in COS-7 cells; settings: Chlorocebus aethiops
[2] = target: T1, Dual specificity mitogen-activated protein kinase kinase 1 (Homo sapiens, UniProt Q02750); experiment: Inhibitory potency against mitogen activated protein kinase kinase 1
Target sequence in this assay (Q02750 whole entry): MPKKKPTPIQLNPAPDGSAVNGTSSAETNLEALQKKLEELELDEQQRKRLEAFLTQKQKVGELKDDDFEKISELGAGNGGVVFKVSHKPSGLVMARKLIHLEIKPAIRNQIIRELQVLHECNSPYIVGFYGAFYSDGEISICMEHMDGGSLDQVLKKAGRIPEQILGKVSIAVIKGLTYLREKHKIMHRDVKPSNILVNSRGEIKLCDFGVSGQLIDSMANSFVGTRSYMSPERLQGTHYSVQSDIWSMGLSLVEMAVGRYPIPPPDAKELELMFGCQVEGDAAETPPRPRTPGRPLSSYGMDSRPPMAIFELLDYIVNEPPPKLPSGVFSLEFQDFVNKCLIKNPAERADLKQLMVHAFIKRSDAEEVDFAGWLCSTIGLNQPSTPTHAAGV

[3] = target: T2, Dual specificity mitogen-activated protein kinase kinase 3 (Homo sapiens, UniProt P46734); experiment: Inhibitory potency against MAP kinase kinase 3 (MKK3); assay type: functional
T2 sequence (P46734 whole entry): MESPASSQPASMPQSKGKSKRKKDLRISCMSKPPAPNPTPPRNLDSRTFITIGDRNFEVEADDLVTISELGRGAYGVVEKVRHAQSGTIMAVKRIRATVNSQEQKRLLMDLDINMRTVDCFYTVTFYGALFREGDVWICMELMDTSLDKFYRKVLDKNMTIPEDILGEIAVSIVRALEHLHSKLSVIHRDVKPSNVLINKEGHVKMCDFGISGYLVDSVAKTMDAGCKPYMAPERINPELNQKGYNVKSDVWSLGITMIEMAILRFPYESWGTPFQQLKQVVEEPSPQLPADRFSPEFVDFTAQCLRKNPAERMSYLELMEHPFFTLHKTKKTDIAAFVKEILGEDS

[4] = Inhibitory potency against Mitogen activated protein kinase kinase 4; assay type: functional
Mus musculus = experiment: In vivo effective dose against TPA-induced ear edema in mouse upon intraperitoneal administration; assay type: functional; settings: ip
COS-7 [5] = tested on: COS-7
[6] = target: T1, Dual specificity mitogen-activated protein kinase kinase 1; experiment: Inhibitory potency against mitogen activated protein kinase kinase 1 at 10 uM
Target sequence in this assay (Q02750 whole entry, looked up): as the sequence (Q02750 whole entry) above

SMILES	IC50 [2] [nM]	IC50 (COS-7 [1]) [µM]	other results
N#C/C(=C(/N)Sc1ccccc1O)c1cccc(C(O)c2ccc(C#N)cc2)c1 (stereo not drawn)	–	0.64	–
N#C/C(=C(/N)Sc1ccccc1N)c1cccc(C(O)c2cccnc2)c1 (stereo not drawn)	–	2.72	–
Cc1ccccc1C(O)c1cccc(/C(C#N)=C(\N)Sc2ccccc2N)c1 (stereo not drawn)	–	2.69	–
Cc1cccc(C(O)c2cccc(/C(C#N)=C(\N)Sc3ccccc3N)c2)c1 (stereo not drawn)	–	2.4	–
N#CC(=C(/N)Sc1ccccc1N)/C(C#N)=C(\N)Sc1ccccc1N	–	1	–
N#C/C(=C(/N)Sc1ccccc1N)c1cccc(C(O)c2ccncc2)c1 (stereo not drawn)	–	1.4	IC50 [3]: > 1000 nM; IC50 [4]: > 1000 nM; ED50 (Mus musculus): 5 mg/kg
N#C/C(=C(/N)Sc1ccc(N)cc1)c1cccc(C(O)c2ccccc2)c1 (stereo not drawn)	–	10.7	–
N#C/C(=C(/N)Sc1ccccc1N)c1cccc(C(O)c2ccoc2)c1 (stereo not drawn)	–	7.02	–
CN(C(=O)c1cccc(/C(C#N)=C(\N)Sc2ccc(N)cc2)c1)c1ccccc1	–	–	inhibition [6]: 45%
Cc1ccc(C(O)c2cccc(/C(C#N)=C(\N)Sc3ccccc3N)c2)cc1 (stereo not drawn)	–	3	–
Cc1cccc(C(O)c2cccc(/C(C#N)=C(\N)Sc3ccc(N)cc3)c2)c1 (stereo not drawn)	–	–	IC50 (COS-7 [5]): Not Active
N#C/C(=C(/N)Sc1ccccc1N)c1cccc(Cc2ccccc2)c1	–	3.2	–
N#C/C(=C(/N)Sc1ccccc1N)c1cccc(C(O)Cc2ccccc2)c1 (stereo not drawn)	–	19.9	–
CC(O)(c1ccccc1)c1cccc(/C(C#N)=C(\N)Sc2ccccc2N)c1 (stereo not drawn)	–	–	IC50 (COS-7 [5]): Not Active
N#C/C(=C(/N)Sc1ccccc1N)c1ccc(C(=O)c2ccccc2)cc1	–	3.13	–
Cc1ccc(C(O)c2cccc(/C(C#N)=C(\N)Sc3ccc(N)cc3)c2)cc1 (stereo not drawn)	–	–	IC50 (COS-7 [5]): Not Active
N#C/C(=C(/N)Sc1ccccc1N)c1cccc(C(O)c2ccccn2)c1 (stereo not drawn)	–	11.8	–
COc1ccccc1S/C(N)=C(\C#N)c1cccc(C(O)c2ccc(C#N)cc2)c1 (stereo not drawn)	–	–	IC50 (COS-7 [5]): Not Active
N#C/C(=C(/N)Sc1ccccc1N)c1cccc(C(O)c2ccccc2)c1 (stereo not drawn)	–	2.07	–
N#C/C(=C(/N)Sc1ccccc1N)c1cccc(Oc2ccccc2)c1	–	3.03	–
N#C/C(=C(/N)Sc1ccc(N)cc1)c1cccc(Cc2ccccc2)c1	–	38.8	–
Cc1ccccc1C(O)c1cccc(/C(C#N)=C(\N)Sc2ccc(N)cc2)c1 (stereo not drawn)	–	3.67	–
N#C/C(=C(/N)Sc1ccccc1N)c1cccc(C(O)c2ccco2)c1 (stereo not drawn)	–	12.2	–
N#C/C(=C(/N)Sc1ccccc1N)c1cccc(C(=O)c2ccccc2)c1	–	6.17	–

Now from value to compound, other results behind:

IC50 [2] [nM]	SMILES	IC50 (COS-7 [1]) [µM]	other results
56	N#C/C(=C(/N)Sc1ccccc1N)c1cccc(C(O)C2CCCCC2)c1 (stereo not drawn)	4.51	–
17	N#C/C(=C(/N)Sc1ccccc1N)c1cccc(C(O)c2cccs2)c1 (stereo not drawn)	2.22	–
2220	N#C/C(=C(/N)Sc1ccccc1N)c1cccc(C(O)(c2ccccc2)c2ccccc2)c1	–	IC50 (COS-7 [5]): Not Active
53	N#C/C(=C(/N)Sc1ccc(N)cc1)c1cccc(C(O)c2ccc(C#N)cc2)c1 (stereo not drawn)	–	–
8	N#C/C(=C(/N)Sc1ccccc1N)c1cccc(C(O)c2ccc([N+](=O)[O-])cc2[N+](=O)[O-])c1 (stereo not drawn)	0.3	–
17	N#C/C(=C(/N)Sc1ccccc1N)c1cccc(C(O)c2ccsc2)c1 (stereo not drawn)	2.4	–
8	N#C/C(=C(/N)Sc1ccccc1N)c1cccc(C(O)c2ccc([N+](=O)[O-])cc2)c1 (stereo not drawn)	0.3	–
76	N#C/C(=C(/N)Sc1ccccc1N)c1cccc(C(O)c2ccc3ccccc3c2)c1 (stereo not drawn)	3.25	–
14	COC(=O)c1ccc(C(O)c2cccc(/C(C#N)=C(\N)Sc3ccccc3N)c2)cc1 (stereo not drawn)	0.29	–
53	N#C/C(=C(/N)Sc1ccccc1)c1cccc(C(O)c2ccc(C#N)cc2)c1 (stereo not drawn)	1.2	–
340	CC(C)(O)c1cccc(/C(C#N)=C(\N)Sc2ccccc2N)c1	40	–
25	N#C/C(=C(/N)Sc1ccccc1N)c1cccc(C(O)c2ccc3c(c2)OCCO3)c1 (stereo not drawn)	2.1	–
53	N#C/C(=C(/N)Sc1ccccc1N)c1cccc(C(O)c2cccc(C(F)(F)F)c2)c1 (stereo not drawn)	5.7	–
140	N#CC(=C(N)Sc1ccccc1N)c1ccccc1	–	–
330	C[n+]1ccc(C(O)c2cccc(/C(C#N)=C(\N)Sc3ccccc3N)c2)cc1 (stereo not drawn)	50	–
57	N#C/C(=C(/N)Sc1ccccc1N)c1cccc(C(O)c2ccc(C(F)(F)F)cc2)c1 (stereo not drawn)	3.97	–
44	N#C/C(=C(/N)Sc1ccccc1N)c1cccc(C(O)c2c(F)c(F)c(F)c(F)c2F)c1 (stereo not drawn)	–	–
7	N#C/C(=C(/N)Sc1ccccc1N)c1cccc(C(O)c2ccc(C#N)cc2)c1 (stereo not drawn)	0.32	–
17	N#C/C(=C(/N)Sc1ccccc1N)c1cccc(C(O)c2cccc([N+](=O)[O-])c2)c1 (stereo not drawn)	1.6	–
13	N#C/C(=C(/N)Sc1ccccc1N)c1cccc(C(O)c2cccc(C#N)c2)c1 (stereo not drawn)	1.08	–
4010	CN(C(=O)c1cccc(/C(C#N)=C(\N)Sc2ccccc2N)c1)c1ccccc1	–	–
47	N#C/C(=C(/N)Sc1ccccc1N)c1cccc(C(O)c2cccc3ccccc23)c1 (stereo not drawn)	2.59	–
255	N#C/C(=C(/N)Sc1ccccc1N)c1cccc(C(O)c2ccc(-c3nnn(C(c4ccccc4)(c4ccccc4)c4ccccc4)n3)cc2)c1 (stereo not drawn)	6.88	–
183	CC(O)c1cccc(/C(C#N)=C(\N)Sc2ccccc2N)c1 (stereo not drawn)	66.7	–
25	N#C/C(=C(/N)Sc1ccccc1O)c1cccc(C(O)c2cccc([N+](=O)[O-])c2)c1 (stereo not drawn)	3.22	–
